From US20250034210A1, “DLL3 TARGETING PEPTIDES AND CONSTRUCTS THEREOF” (MARIANA ONCOLOGY INC., priority 2023, published 2025)
*1 amine or outer side, *2 acyl side, *3 side chain or, on linkers, in order; H or OH if unused. Where a SMILES comes first, the peptide text is derived from it. Bridges are numbered along the chain shown (N, C = ends). [ ]: non-standard residue; d: D form. The star is where a group is joined. DOTA = O=C(O)CN1CCN(CC(=O)O)CCN(CC(=O)*)CCN(CC(=O)O)CC1; Pro(4S-NH2) = N[C@@H]1CN[C@H](C(=O)O)C1; γGlu = O=C(O)[C@H](CCC(=O)[*:2])N[*:1]; Ahx = NCCCCCC(=O)O

Experiments:
SHP-77 tumors = experiment: Ex vivo biodistribution of radiolabeled peptides in nude mice bearing SHP-77 tumors; conditions: [^177Lu]Lu labelling; nude mice bearing SHP-77 tumors (n = 3); 24 hours post-injection; intravenous
Experimental: [^177Lu]LuCl3 was received from venders in HCl solution. For every mCi of [^177Lu]LuCl3 added to the reaction vial (1.5 mL Eppendorf vial), ammonium acetate buffer (0.2 M, pH 4.9, 100 μL, containing 1% w/v ascorbic acid and 6% v/v ethanol) and peptide conjugate (1 nmol also referred to herein as “chelator-peptides”) was added. A peptide conjugate of the present disclosure is also referred to herein as a “chelator-peptide”. The pH of the solution was determined to be approximately 5 by using pH strips. The reaction vial was incubated at 80° C., 700 RPM for 17-20 minutes. A sample from the reaction was analyzed by RP-HPLC using an Agilent Infinity II 1260 HPLC to determine reaction completion and radiochemical purity of [^177Lu]Lu-chelator-peptide. HPLC conditions: Waters XBridge BEH C18 Column, 130 A, 3.5 um, 4.6 mm×250 mm; mobile phase: Solvent A=water (with 0.1% formic acid), solvent B=acetonitrile (with 0.1% formic acid). Gradients: 25-45% B in 10 minutes, 45-65% B in 12 minutes, 65-90% in 6 minutes at a flow rate of 0.5 mL/min. Required amounts of the product was formulated in 1% PBSA for cell studies.
Mice were intravenously injected (via the lateral tail vein) with a bolus dose of the radiolabeled peptides for ex vivo biodistribution studies when tumor volumes were in range of 200-400 mm^3 for xenograft mice and when age of the mice was 5-7 weeks for tumor naïve mice studies. To assess the amount of radionuclide injected into individual mice the syringe was assayed in a dose calibrator before and after injection for [^177Lu]Lu-peptide.
Mice were euthanized at pre-determined time points and selected tissues were resected and collected into pre-weighed tubes. The tubes were then reweighed post resection, the difference giving the weight of each tissue. Radioactivity in each tissue was measured using a gamma counter. Counts were decay corrected to the time of injection and percentage of injected activity per gram (% IA/g) was calculated for each tissue based on the injected activity into each individual mouse. Injected activity was converted to counts based on the sensitivity of the gamma counter. The counts in tissue were then converted to the percentage of injected activity and this was divided by the mass of tissue to give % IA/g.

human DLL3 = molecular target: T1, human DLL3 (Homo sapiens, UniProt Q9NYJ7); experiment: Affinity determination by Surface Plasmon Resonance (SPR), biotinylated human DLL3 immobilized on streptavidin sensor chip; conditions: 25° C., Biacore, 1:1 binding model
T1 construct: biotin (biotinylated)
T1 sequence (Q9NYJ7 27-618): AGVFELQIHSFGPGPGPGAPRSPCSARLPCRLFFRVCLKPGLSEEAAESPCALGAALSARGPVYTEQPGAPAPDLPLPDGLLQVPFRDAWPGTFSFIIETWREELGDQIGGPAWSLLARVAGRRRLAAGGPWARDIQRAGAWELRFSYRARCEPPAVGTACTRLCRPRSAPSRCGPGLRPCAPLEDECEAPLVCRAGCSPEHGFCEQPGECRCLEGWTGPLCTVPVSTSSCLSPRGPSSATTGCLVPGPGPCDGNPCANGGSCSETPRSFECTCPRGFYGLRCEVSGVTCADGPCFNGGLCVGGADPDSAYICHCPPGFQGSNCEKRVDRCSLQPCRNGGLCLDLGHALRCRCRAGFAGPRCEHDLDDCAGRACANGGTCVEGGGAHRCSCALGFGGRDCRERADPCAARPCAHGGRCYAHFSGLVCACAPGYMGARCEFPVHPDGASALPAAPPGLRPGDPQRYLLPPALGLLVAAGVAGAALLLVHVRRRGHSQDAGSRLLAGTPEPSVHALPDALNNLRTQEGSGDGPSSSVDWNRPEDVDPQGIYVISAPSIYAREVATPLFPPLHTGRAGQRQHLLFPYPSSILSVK
Experimental: Affinity Determination by Surface Plasmon Resonance (SPR). SPR studies were performed on the compounds disclosed herein using the following protocol.
The binding affinity and binding kinetic parameters at 25° C. were determined using Biacore S200 or biacore 8K instrument. Biotinylated target ligand human DLL3 was immobilized on a streptavidin sensor chip. A reference surface was set up for nonspecific binding and refractive index changes. For analysis of the kinetics of interactions, varying concentrations of samples were injected at a flow rate of 100 μL/min using running buffer containing 20 mM phosphate buffer with 2.7 mM KCl, 137 mM NaCl, 0.05% Surfactant P20 and 2% DMSO. Sensorgram curves were fitted with 1:1 binding model, and affinity and kinetic parameters were obtained using Biacore Insight evaluation 4.0. software.

| kidney uptake (% IA/g) (SHP-77 tumors) | tumor uptake (% IA/g) (SHP-77 tumors) | Kd (human DLL3) [nM] | SMILES |
| --- | --- | --- | --- |
| D (% IA/g > 10 in kidney) | A (0 < % IA/g ≤ 5 in tumor) | 1 to 10 | CC[C@H](C)[C@H](NC(=O)[C@@H](NC(=O)[C@H](Cc1c[nH]c2ccccc12)NC(=O)CCCCCNC(=O)CN1CCN(CC(=O)O)CCN(CC(=O)O)CCN(CC(=O)O)CC1)[C@@H](C)O)C(=O)N[C@H]1CSSC[C@@H](C(=O)N[C@@H](Cc2c[nH]c3ccccc23)C(=O)N2CCC[C@@H]2C(N)=O)NC(=O)[C@H](CC(=O)O)NC(=O)[C@H](Cc2cnc[nH]2)NC(=O)[C@H](Cc2c[nH]c3ccccc23)NC(=O)[C@H](CC(N)=O)NC(=O)[C@H](CC(N)=O)NC1=O [compound 18, DOTA-Ahx-W-T-I-C(3)-N-N-W-H-D-C(3)-W-P-CONH2] ({DOTA-Ahx}-WTICNNWHDCW[dP]-NH2; disulfide 4-10) |
| D (% IA/g > 10 in kidney) | A (0 < % IA/g ≤ 5 in tumor) |  | CC[C@H](C)[C@H](NC(=O)[C@@H](NC(=O)[C@H](Cc1c[nH]c2ccccc12)NC(=O)CC[C@H](NC(=O)CC[C@H](NC(=O)CC[C@H](NC(=O)CN1CCN(CC(=O)O)CCN(CC(=O)O)CCN(CC(=O)O)CC1)C(=O)O)C(=O)O)C(=O)O)[C@@H](C)O)C(=O)N[C@H]1CSSC[C@@H](C(=O)N[C@@H](Cc2c[nH]c3ccccc23)C(=O)N2CCC[C@H]2C(N)=O)NC(=O)[C@H](CC(=O)O)NC(=O)[C@H](Cc2c[nH]cn2)NC(=O)[C@H](Cc2c[nH]c3ccccc23)NC(=O)[C@H](CC(N)=O)NC(=O)[C@H](CC(N)=O)NC1=O [compound 82, DOTA-(gE)3-W-T-I-C(3)-N-N-W-H-D-C(3)-W-P-CONH2] ({DOTA-γGlu-γGlu-γGlu}-WTICNNWHDCWP-NH2; disulfide 4-10) |
|  |  | 10 to 100 | CC[C@H](C)[C@H](NC(=O)[C@@H](NC(=O)[C@H](Cc1c[nH]c2ccccc12)NC(=O)CCCCCNC(=O)CN1CCN(CC(=O)O)CCN(CC(=O)O)CCN(CC(=O)O)CC1)[C@@H](C)O)C(=O)N[C@H]1CSSC[C@@H](C(=O)N[C@@H](Cc2c[nH]c3ccccc23)C(=O)N2C[C@@H](N)C[C@H]2C(N)=O)NC(=O)[C@H](CC(=O)O)NC(=O)[C@H](Cc2cnc[nH]2)NC(=O)[C@H](Cc2c[nH]c3ccccc23)NC(=O)[C@H](CC(N)=O)NC(=O)[C@H](CC(N)=O)NC1=O [compound 225, DOTA-Ahx-W-T-I-C(3)-N-N-W-H-D-C(3)-W-(cis4NH2-P)-CONH2] ({DOTA-Ahx}-WTICNNWHDCW[Pro(4S-NH2)]-NH2; disulfide 4-10) |
